From ChEMBL document CHEMBL1131888, “Synthesis, dopamine and serotonin transporter binding affinities of novel analogues of meperidine” (Bioorg Med Chem Lett, 1999)

Legend:
[1] = target: Monoamine transporters; serotonin & dopamine (Rattus norvegicus) (UniProt P31652+P23977); assay: Relative affinity for dopamine and serotonin transporters; type: protein assay
[2] = target: Sodium-dependent serotonin transporter (Rattus norvegicus, UniProt P31652); assay: Displacement of [3H]paroxetine from serotonin transporter (SERT)
Chain of Sodium-dependent serotonin transporter (P31652 whole entry): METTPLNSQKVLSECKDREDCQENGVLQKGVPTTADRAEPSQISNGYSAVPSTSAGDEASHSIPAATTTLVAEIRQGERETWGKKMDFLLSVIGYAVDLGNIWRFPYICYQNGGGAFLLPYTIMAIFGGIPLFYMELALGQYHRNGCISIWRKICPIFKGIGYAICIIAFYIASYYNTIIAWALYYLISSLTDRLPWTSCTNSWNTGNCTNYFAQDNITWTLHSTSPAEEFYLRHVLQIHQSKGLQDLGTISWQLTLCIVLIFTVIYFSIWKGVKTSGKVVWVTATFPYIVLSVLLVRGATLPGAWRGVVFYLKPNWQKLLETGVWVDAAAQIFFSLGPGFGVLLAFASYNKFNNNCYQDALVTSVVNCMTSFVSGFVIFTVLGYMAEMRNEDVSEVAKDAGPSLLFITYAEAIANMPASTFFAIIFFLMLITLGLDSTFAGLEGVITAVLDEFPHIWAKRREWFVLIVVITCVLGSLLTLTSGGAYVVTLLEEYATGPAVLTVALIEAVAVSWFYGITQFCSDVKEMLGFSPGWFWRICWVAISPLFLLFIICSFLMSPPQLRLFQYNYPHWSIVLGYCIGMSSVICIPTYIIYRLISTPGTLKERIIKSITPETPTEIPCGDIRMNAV

[3] = target: Sodium-dependent dopamine transporter (Rattus norvegicus, UniProt P23977); assay: Displacement of [3H]WIN-35428 from dopamine transporter (DAT)
Chain of Sodium-dependent dopamine transporter (P23977 whole entry): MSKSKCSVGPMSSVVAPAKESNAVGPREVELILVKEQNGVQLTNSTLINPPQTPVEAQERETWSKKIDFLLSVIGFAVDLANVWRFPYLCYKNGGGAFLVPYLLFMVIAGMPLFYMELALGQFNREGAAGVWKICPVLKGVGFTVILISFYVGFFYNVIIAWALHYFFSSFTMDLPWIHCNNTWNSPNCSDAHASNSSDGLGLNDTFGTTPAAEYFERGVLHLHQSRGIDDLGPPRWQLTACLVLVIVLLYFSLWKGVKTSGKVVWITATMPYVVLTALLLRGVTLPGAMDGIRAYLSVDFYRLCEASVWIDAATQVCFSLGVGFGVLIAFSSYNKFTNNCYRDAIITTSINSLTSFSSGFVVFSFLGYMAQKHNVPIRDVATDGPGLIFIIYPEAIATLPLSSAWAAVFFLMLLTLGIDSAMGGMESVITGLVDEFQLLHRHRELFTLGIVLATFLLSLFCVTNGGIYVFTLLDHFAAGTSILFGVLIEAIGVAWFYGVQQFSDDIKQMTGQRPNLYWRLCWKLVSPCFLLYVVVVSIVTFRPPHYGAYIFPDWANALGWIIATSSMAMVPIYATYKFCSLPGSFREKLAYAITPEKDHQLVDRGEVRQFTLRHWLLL

[4] = target: Sodium-dependent dopamine transporter (Rattus norvegicus) (UniProt P23977); assay: Inhibition of binding affinity for dopamine transporter (DAT) by competition against bound [3H]WIN-35428 tested in vitro at a dose of 100 uM
Chain of Sodium-dependent dopamine transporter (Rattus norvegicus) (P23977 whole entry): as above

Chain of Monoamine transporters; serotonin & dopamine (Rattus norvegicus) (P23977 whole entry, looked up): as the sequence (P23977 whole entry) above
Chain of Monoamine transporters; serotonin & dopamine (Rattus norvegicus) (P31652 whole entry, looked up): as the sequence (P31652 whole entry) above

Row | SMILES | Selectivity [1] | Ki [2] | Ki [3] | inhibition [4]
1 | CN1CCC(C#N)(c2ccc3ccccc3c2)CC1 | 18.9 | 0.125 µM | 2.36 µM | –
2 | Cc1ccc(C2(C#N)CCN(C)CC2)cc1 | 3.06 | 13.7 µM | 41.8 µM | 68%
3 | CN1CCC(C#N)(c2cccc3ccccc23)CC1 | 16.7 | 1.02 µM | 16 µM | –
4 | CCOC(=O)C1(c2ccc(F)cc2)CCN(C)CC1 | 34.7 | 0.308 µM | 10.7 µM | –
5 | CCOC(=O)C1(c2ccc(Cl)cc2)CCN(C)CC1 | 14.8 | 0.277 µM | 4.1 µM | 79%
6 | CN1CCC(C#N)(c2ccc(Cl)c(Cl)c2)CC1 | 3.32 | 0.805 µM | 2.67 µM | –
7 | CN1CCC(C#N)(c2ccc(I)cc2)CC1 | 19.4 | 0.43 µM | – | –
8 | CCOC(=O)C1(c2ccc(C)cc2)CCN(C)CC1 | 7.69 | 1.61 µM | 12.4 µM | 68%
9 | CCOC(=O)C1(c2ccc(I)cc2)CCN(C)CC1 | 155 | 0.021 µM | 3.25 µM | –
10 | CN1CCC(C#N)(c2ccc(Cl)cc2)CC1 | 4.31 | 5.11 µM | 22 µM | 79%
11 | CCOC(=O)C1(c2ccc(Cl)c(Cl)c2)CCN(C)CC1 | 6.68 | 0.019 µM | 0.125 µM | –
12 | CCOC(=O)C1(c2ccc3ccccc3c2)CCN(C)CC1 | 158 | 0.0072 µM | 1.14 µM | –
13 | CN1CCC(C#N)(c2ccc(F)cc2)CC1 | – | 10.1 µM | – | 45%
